Measured values: patent US8197838B2, “Sustained release systems of ascorbic acid phosphate” (Advanced Technologies and Regenerative Medicine, LLC., priority 2008, dated 2012)
Values joined by “and” are separate entries in the source; they are usually repeats but may differ in a detail not shown here. Identical values can stand only once.

Legend:
[1] = AZP drying condition evaluation (weight loss on heating); type: physicochemical; conditions: for Total Weight loss after 2nd Heat: cumulative; for Weight loss after 1st Heat: Trisodium Salt
Description: The following drying conditions for 2-Phospha-L-ascorbic Acid Trisodium Salt (AZP), (>98% (HPLC), Fluka, Lot#: 1322473 52607420) were tested: 90° C./24 hrs. under vacuum, 160° C./30 minutes under dry nitrogen blanket, and 200° C./30 minutes under dry nitrogen blanket. The times tested include estimating the compounding time and time for sample collection and cooling.
6 glass vials were pre-dried in a vacuum oven at 160° C. for 30 minutes and transferred to a glove box purged with dry nitrogen gas. AZP powder was weighed in each vial (see Table 1) in the glove box.
(§1) The dried AZP powder vials were sealed with Parafilm and stored under dry a nitrogen blanket until evaluation. The weight loss % was cumulative over both heating conditions. The samples under RT/N2 were stored in nitrogen box. The samples were evaluated for color change of the course of the heating conditions. Color change is an indicator of AZP degradation. […] The higher temperature and shorter time could have the same drying effects on the weight loss. […] Therefore 160° C. and 30 minutes were selected as the upper limits of the drying and processing condition

[2] = Color change as indicator of AZP degradation; type: physicochemical
Description: as §1
Films were prepared as follow: The platens of a compression molding instrument (Carver Laboratory Press, Model: 2696) were pre-heated to 205° C. About 3.5 grams of the composition were placed on the platens and heated for 5 minutes. Pressure was applied (about 20,000 lbs) for about 2 minutes. The heating was stopped and the platens and film were allowed to cool to RT under water cooling and continued pressure.

[3] = stated by material safety data sheet from an AZP manufacturer; cited from earlier work

## 2-Phospha-L-ascorbic Acid Trisodium Salt [AZP]
[1]; 1st 90° C./Vac 24 hours, 2nd 160° C./N2/air 30 min
  Total Weight loss after 2nd Heat: 6.25 wt %
[1]; 1st 90° C./Vac 24 hours, 2nd 200° C./N2/air 30 min
  Total Weight loss after 2nd Heat: 6.75 wt %
[1]; 1st 90° C./Vac 24 hours, 2nd RT/N2 30 min
  Total Weight loss after 2nd Heat: 4.41 wt %
[1]; 1st RT/N2 24 hours, 2nd 160° C./N2/air 30 min
  Total Weight loss after 2nd Heat: 10.06 wt %
[1]; 1st RT/N2 24 hours, 2nd 200° C./N2/air 30 min
  Total Weight loss after 2nd Heat: 8.10 wt %
[1]; 1st RT/N2 24 hours, 2nd RT/N2 30 min (control)
  Total Weight loss after 2nd Heat: 0.25 wt %
[1]; 1st heat for 24 hours 90° C./Vac
  Weight loss after 1st Heat: 8.09 wt % and 7.59 wt % and 6.43 wt %
[1]; 1st heat for 24 hours RT/N2
  Weight loss after 1st Heat: 1.18 wt % and 1.76 wt % and 1.00 wt %
[1]; as received
  Moisture content of AZP as received: up to 7.5 % by weight
[2]; sample number 6, 90° C./Vac 24 hrs then heated to 200° C.
  Color change of AZP powder (indicator of degradation): darkest yellow color
[2]; samples heated at 90° C./24 hrs.
  Color change of AZP powder (indicator of degradation): very slight yellow color
[2]; samples heated for no more than 30 minutes
  Color change of AZP powder (indicator of degradation): retained the original white color
[2]; samples that underwent 2 heat treatments
  Color change of AZP powder (indicator of degradation): slightly yellow color
[3]
  Degradation temperature of AZP: about 260 °C
